Laboratory results from ChEMBL document CHEMBL1817658, “Synthesis and biological activity of optically active phenylbutenoid dimers” (J Nat Prod, 2011).

The compounds below were run against ATP-dependent translocase ABCB1 (Homo sapiens, UniProt P08183) (assay: Inhibition of P-gp in human MCF7/ADR cells assessed as potentiation of daunomycin-induced cytotoxicity at 50 microM incubated for 2 hrs by SRB assay). Conditions: nci/adr-res; call rule not given here.
Sequence of ATP-dependent translocase ABCB1 (P08183 whole entry): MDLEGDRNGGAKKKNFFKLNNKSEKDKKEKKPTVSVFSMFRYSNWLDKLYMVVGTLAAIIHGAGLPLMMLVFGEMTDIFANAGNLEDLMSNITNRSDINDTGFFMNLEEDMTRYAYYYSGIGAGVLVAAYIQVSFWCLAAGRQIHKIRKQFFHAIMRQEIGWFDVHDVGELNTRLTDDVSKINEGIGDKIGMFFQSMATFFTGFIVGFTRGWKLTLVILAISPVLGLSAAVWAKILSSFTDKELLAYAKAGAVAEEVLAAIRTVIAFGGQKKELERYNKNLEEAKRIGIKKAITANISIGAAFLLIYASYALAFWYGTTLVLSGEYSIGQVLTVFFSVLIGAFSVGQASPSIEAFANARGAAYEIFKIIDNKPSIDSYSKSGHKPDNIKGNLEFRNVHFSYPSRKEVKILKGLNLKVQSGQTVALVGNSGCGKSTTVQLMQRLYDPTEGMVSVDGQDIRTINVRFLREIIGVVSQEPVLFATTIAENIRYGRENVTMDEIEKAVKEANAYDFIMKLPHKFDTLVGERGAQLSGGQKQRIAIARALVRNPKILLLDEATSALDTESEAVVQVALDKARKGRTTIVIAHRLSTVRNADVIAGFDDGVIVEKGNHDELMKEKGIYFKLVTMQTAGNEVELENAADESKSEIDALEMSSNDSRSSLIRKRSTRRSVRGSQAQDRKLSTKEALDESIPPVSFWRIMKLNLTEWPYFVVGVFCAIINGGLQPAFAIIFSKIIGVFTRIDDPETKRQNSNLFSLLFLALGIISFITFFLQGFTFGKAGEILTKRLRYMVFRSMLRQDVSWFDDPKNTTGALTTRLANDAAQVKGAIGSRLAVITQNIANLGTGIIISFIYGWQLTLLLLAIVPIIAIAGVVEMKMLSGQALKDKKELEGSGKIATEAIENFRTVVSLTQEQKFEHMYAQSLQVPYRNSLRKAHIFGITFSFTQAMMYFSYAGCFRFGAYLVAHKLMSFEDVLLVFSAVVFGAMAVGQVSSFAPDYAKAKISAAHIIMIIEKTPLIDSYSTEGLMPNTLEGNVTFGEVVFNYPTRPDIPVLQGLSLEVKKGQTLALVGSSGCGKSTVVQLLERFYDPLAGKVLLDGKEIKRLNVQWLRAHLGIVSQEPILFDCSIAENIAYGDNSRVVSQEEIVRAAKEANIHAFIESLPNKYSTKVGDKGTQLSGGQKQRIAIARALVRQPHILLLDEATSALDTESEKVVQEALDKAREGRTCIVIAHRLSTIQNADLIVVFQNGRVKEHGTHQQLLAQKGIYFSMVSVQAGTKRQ
Type: cell-based
For COc1ccc(/C=C/[C@@H]2CCC=C[C@H]2c2ccc(OC)c(OC)c2)cc1OC, the “inhibition (INH)” value was “Active”. For COc1ccc(/C=C/[C@H]2CCC=C[C@@H]2c2ccc(OC)c(OC)c2)cc1OC, the “inhibition (INH)” value was “Active”. In the case of COc1ccc(/C=C\[C@H]2CCC=C[C@@H]2c2ccc(OC)c(OC)c2)cc1OC, the “inhibition (INH)” value is reported as “Active”.
